Source: patent US11607417B2, “Uses of celastrol in preventing and/or treating cholestatic liver disease and liver fibrosis” (KUNMING INSTITUTE OF BOTANY, THE CHINESE ACADEMY OF SCIENCES, priority 2017, dated 2023)

System: TAA-induced cholestatic liver injury under SIRT1 inhibition
Experiment: Effect of SIRT1 inhibition (EX527) on celastrol activity in TAA model (Example 4)
Type: in vivo, C57BL/6 mice
Protocol: A total of 24 male C57BL/6 mice were divided into four groups: blank group (n=6);
model group (n=6); treatment group (n=6); EX527 group (n=6).
Celastrol was dissolved in a solvent to obtain a solution of celastrol at a concentration of 2 mg/mL, wherein the solvent consisted of 1% DMSO, 2% Tween, and 97% water (v:v:v). For intragastrical administration, the dosage of celastrol was 10 mg/kg·d. TAA was dissolved in 0.9% NaCl solution to prepare a NaCl solution of TAA at a concentration of 60 mg/mL, and the dosage of TAA for intraperitoneal administration was 300 mg/kg. EX527 was dissolved in corn oil to prepare a corn oil solution of EX527 at a concentration of 2 mg/mL, and the dosage of EX527 for intraperitoneal administration was 10 mg/kg. d.
The EX527 group was simultaneously administered with the celastrol solution and the EX527 corn oil solution for 4 consecutive days. The treatment group was administrated with the celastrol solution and an equal dosage of corn oil for 4 consecutive days. At the same time, the blank group and the model group were administrated with equal dosages of solvent (1% DMSO, 2% Tween 80 and 97% water (v:v:v)) and corn oil, and the solvent was administrated for 4 consecutive days.
On the 4th day, the establishment of TAA model was performed. 1 Hour after administration, the mice in the model group, the treatment group and the EX527 group were intraperitoneally injected with TAA at a dosage of 300 mg/kg to induce cholestatic liver injury. 24 Hours after administration with TAA, the mice were sacrificed by CO2 anesthesia, and plasma samples and liver samples were collected. The eyeballs of the mice were taken for blood collection. The plasma samples were placed on ice for 1-2 hours, centrifuged at 4000 g for 5 minutes at 4° C., and the supernatants of plasma samples were taken to determine the plasma biochemical indicators, the levels of ALT, AST, and ALP.
At the same time, plasma samples were prepared: 10 μL of plasma sample was mixed with 190 μL of 67% acetonitrile (containing 5 μM internal standard chlorpropamide), centrifuged at 18000 g for 20 minutes at 4° C., and the supernatant was taken for sample injection. The liquid chromatography conditions were as follows: the volume of injection was 5 μL; the temperature of column was 45° C.; the flow rate of mobile phase was 0.3 mL/min; the gradient elution was that acetonitrile concentration changed from 2% to 98% during 16 minutes of operation, wherein the mobile phase (water/acetonitrile solution) contained 0.01% formic acid. The elution procedure was as follows: during 0-12th minute, the acetonitrile concentration changed from 2% to 98% at a constant rate; during 12-14th minute, the acetonitrile concentration was maintained at 98%; during 14-14.1th minute, the acetonitrile concentration changed from 98% to 2%; during 14.1-16th minute, the acetonitrile concentration was maintained at 2%. Mass spectrometry conditions were as follows: the temperature of dry gas was 350° C., the pressure of nebulizer was 35 psi, and the voltage of capillary was 3.5 kV.
Part of the collected mouse liver tissue was fixed overnight in formalin, and tissue sections were stained with hematoxylin and eosin (H&E).

[1] = treatment group: celastrol 10 mg/kg·d, TAA model, P<0.05, FIG. 4E

CC1=C(O)C(=O)C=C2C1=CC=C1[C@@]2(C)CC[C@@]2(C)[C@@H]3C[C@](C)(C(=O)O)CC[C@]3(C)CC[C@]12C [celastrol, Celastrol]
H&E staining: area of necrosis of liver cells (treatment group: celastrol 10 mg/kg·d intragastric + corn oil, TAA model, FIG. 4C): significantly reduced | ALT level in plasma vs model group [1]: lower | AST level in plasma vs model group [1]: lower | Levels of bile acids in plasma vs TAA model group (ω-MCA, DCA, TβMCA/TαMCA, TCA, THDCA/TUDCA, TCDCA, TDCA, treatment group: celastrol 10 mg/kg·d, P<0.05, FIG. 4F): significantly lower
